# System: Mushroom tyrosinase
# Assay: Mushroom tyrosinase assay
# Assay type: biochemical
# Settings: L-Tyrosine substrate, 25° C., 30 min
# Method: Mushroom tyrosinase and L-Tyrosine were obtained from Sigma-Aldrich, Inc. (St. Louis, Mo.). The enzyme activity was measured in buffer containing 100 mM phosphate buffer pH 6.8, 5% absolute ethanol, 2 micrograms/milliliter mushroom tyrosinase, and 0.2 mg/ml L-Tyrosine. The reaction (conversion of L-Tyrosine to DOPAchrome) was conducted in triplicates at 25° C. for 30 min, and absorbance was then measured at 492 nm. Kojic Acid was used as a positive control inhibitor in these assays. Percent change in tyrosinase activity relative to vehicle control was calculated.
# [1] = test compound concentration 0.0010%
Tyrosinase Inhibition (percent change in tyrosinase activity compared to DMSO vehicle control) [1] [%],Tyrosinase Inhibition (percent change in tyrosinase activity compared to DMSO vehicle control) (test compound concentration 0.0100%) [%],Structure (SMILES)
−75,−59,CN1CCN(c2nc(-c3ccc(O)cc3O)cs2)CC1 [AV5370]
−46,–,Cc1cc(C)cc(Nc2nc(-c3ccc(O)cc3O)cs2)c1 [AV4662]

# Reference: patent publication US9364405B2, “Tyrosinase inhibitors” (Avon Products, Inc., priority 2013, dated 2016)
